Converted amounts (≈) assume the structure as drawn. Where two headings read alike, the source gives them in different places. Where a SMILES comes first, the peptide text is derived from it. [ ]: non-standard residue; d: D form. Hyp = O=C(O)[C@@H]1C[C@@H](O)CN1; dHyp = O=C(O)[C@H]1C[C@H](O)CN1; Aic = NC1(C(=O)O)Cc2ccccc2C1; dNle = CCCC[C@@H](N)C(=O)O
Columns and labels:
[1] = test system: M. pachydermatis; settings: for MIC Values: broth microdilution, Sabouraud dextrose broth + 1% Tween 80, 48 h, ≥90% inhibition of growth, OD 595 nm; for MMC/MIC Ratio: M. pachydermatis; for MMC Values (minimum mycocidal concentration): ≥3 log10 reduction in colony count from starting inoculum, agar 72 h at 30 °C
Experimental: (§1) MIC of all compounds was determined in Sabouraud Dextrose broth with 1% tween 80 (SB) medium, for M. pachydermatis, and Mueller–Hinton broth (MH), for S. pseudintermedius, by the broth microdilution assay (BMD) in 96-well microtiter plates, as previously reported. Specifically, SB containing 1% Tween 80 was used instead of RPMI 1640 medium. All compounds were dissolved in ethanol and ketoconazole in dimethyl sulfoxide (DMSO). The solutions were serially diluted in SB and MH two-fold from 0.19 to 50 μM. M. pachydermatis suspension was prepared from 3-day-old colonies grown on Sabouraud agar at 30 °C. The final concentration of the yeast inoculum suspensions was equivalent to 1–3 × 10^3 CFU/mL. Bacterial suspensions were diluted to yield an optical density (OD) around 0.5 at 595 nm and further diluted to a final concentration of 1 × 10^6 CFU/mL. The compounds were added to the microbial suspension in each well yielding a final cell concentration of 5 × 10^5 CFU/mL. Positive controls included oxacillin 5 μM (2 μg/mL) and vancomycin 1.4 μM (2 μg/mL) for S. pseudintermedius or ketoconazole 0.2 μM (0.125 μg/mL) for M. pachydermatis. Negative control wells were set to contain bacteria in MH or yeasts in SB plus the amount of ethanol used to dilute each compound. Medium turbidity was measured by a microtiter plate reader (Tecan, Milan, Italy) at 595 nm after 24 h for S. pseudintermedius and 48 h for M. pachydermatis. Absorbance was proportional to microbial growth. The MIC was defined as the lowest concentration of drug that caused a prominent decrease (≥90% inhibition) in visible growth relative to that of the growth control.

[2] = test system: methicillin-resistant S. pseudintermedius (MRSP); assay: microbe, parasite or virus in culture; type: cell-based, Staphylococcus pseudintermedius; settings: Staphylococcus pseudintermedius, 24 h
Experimental: as §1

[3] = test system: methicillin-susceptible S. pseudintermedius (MSSP); assay: microbe, parasite or virus in culture; type: cell-based, Staphylococcus pseudintermedius; settings: Staphylococcus pseudintermedius, 24 h
Experimental: as §1

[4] = test system: MRSP; assay: Checkerboard synergy of peptide 8 and oxacillin; type: cell-based, Staphylococcus pseudintermedius
Experimental: The interaction between peptide 8 and oxacillin against MRSP was evaluated by the checkerboard method. Briefly, twofold serial dilutions of oxacillin distributed in horizontal rows of 96-well microtiter plate were cross-diluted vertically by twofold serial dilutions of peptide 8 to at least double the MIC. The peptide 8 tested concentration ranging from 0.19 to 12.5 μM and oxacillin from 1.25 to 25 μM (0.5 to 10 μg/mL). Microtiter plates were inoculated with bacteria at an approximate concentration of 10^5 CFU/mL and incubated at 37 °C for 24 h. […] To evaluate the effect of the combination treatment, the fractional inhibitory concentration (FIC) index for each combination was calculated as follows: FIC index = FIC of peptide 8 + FIC of oxacillin, where FIC of peptide 8 (or oxacillin) was defined as the ratio of MIC of peptide 8 (or oxacillin) in combination and MIC of peptide 8 (or oxacillin) alone. The FIC index values were interpreted as follows: ≤0.5, synergistic; >0.5 to ≤1.0, additive; >1.0 to ≤2.0, indifferent; and >2.0, antagonistic effects.

| Structure (SMILES) | MIC Values [1] | MMC/MIC Ratio [1] | MMC Values (minimum mycocidal concentration) [1] | other results |
| --- | --- | --- | --- | --- |
| CC[C@H](C)[C@H](NC(=O)[C@H](CCCNC(=N)N)NC(=O)CNC(=O)[C@@H](CC(C)C)NC(=O)[C@H](Cc1ccccc1)NC(=O)[C@H](CCCCN)NC(=O)[C@H](CO)NC(=O)[C@H](Cc1ccccc1)NC(=O)[C@H](Cc1c[nH]c2ccccc12)NC(=O)[C@@H]1CCCN1C(=O)[C@@H](NC(=O)[C@@H](N)Cc1ccccc1)C(C)C)C(=O)N[C@@H](CC(C)C)C(N)=O [Peptide 1] (H-FVPWFSKF[dL]GRIL-NH2) | 25 µM |  |  |  |
| Cc1onc(-c2ccccc2)c1C(=O)N[C@@H]1C(=O)N2[C@@H]1SC(C)(C)[C@@H]2C(=O)O [Oxacillin, oxacillin, reference compound] |  |  |  | MIC ([2]; MRSP, Mueller-Hinton broth, ≥90% inhibition, three independent experiments in triplicate, read-out: MIC): 25 µM (≈ 10 µg/mL); MIC ([3]; MSSP, Mueller-Hinton broth, ≥90% inhibition, three independent experiments in triplicate, read-out: MIC): < 5 µM; Oxacillin MIC value reduction in combination with peptide 8 ([4]; MRSP, oxacillin alone versus oxacillin in combination): about eight; Concentration of oxacillin in the most synergistic combination ([4]; with 1.56 μM peptide 8, MRSP, 1/8 MIC): 3.1 µM |
| CCCC[C@@H](NC(=O)[C@@H](CC(C)C)NC(=O)[C@H](Cc1ccccc1)NC(=O)[C@H](CCCCN)NC(=O)[C@H](CO)NC(=O)[C@H](Cc1ccccc1)NC(=O)[C@H](Cc1c[nH]c2ccccc12)NC(=O)[C@@H]1CCCN1C(=O)[C@@H](NC(=O)[C@@H](N)Cc1ccccc1)C(C)C)C(=O)N[C@@H](CCCNC(=N)N)C(=O)N[C@H](C(=O)N[C@@H](CC(C)C)C(N)=O)[C@@H](C)CC [Peptide 6] (H-FVPWFSKF[dL][dNle]RIL-NH2; N-terminus assumed) | 25 µM | 4 | 100 µM |  |
| CC[C@H](C)[C@H](NC(=O)[C@H](CCCNC(=N)N)NC(=O)[C@@H]1CCCN1C(=O)[C@@H](CC(C)C)NC(=O)[C@H](Cc1ccccc1)NC(=O)[C@H](CCCCN)NC(=O)[C@H](CO)NC(=O)[C@H](Cc1ccccc1)NC(=O)[C@H](Cc1c[nH]c2ccccc12)NC(=O)[C@@H]1CCCN1C(=O)[C@@H](NC(=O)[C@@H](N)Cc1ccccc1)C(C)C)C(=O)N[C@@H](CC(C)C)C(N)=O [Peptide 2] (H-FVPWFSKF[dL]PRIL-NH2) | 25 µM | 4 | 100 µM |  |
| CC[C@H](C)[C@H](NC(=O)[C@H](CCCNC(=N)N)NC(=O)[C@@H]1C[C@@H](O)CN1C(=O)[C@@H](CC(C)C)NC(=O)[C@H](Cc1ccccc1)NC(=O)[C@H](CCCCN)NC(=O)[C@H](CO)NC(=O)[C@H](Cc1ccccc1)NC(=O)[C@H](Cc1c[nH]c2ccccc12)NC(=O)[C@@H]1CCCN1C(=O)[C@@H](NC(=O)[C@@H](N)Cc1ccccc1)C(C)C)C(=O)N[C@@H](CC(C)C)C(N)=O [Peptide 4] (H-FVPWFSKF[dL][Hyp]RIL-NH2) | 25 µM | 4 | 100 µM |  |
| CN[C@H](CC(C)C)C(=O)N[C@H]1C(=O)N[C@@H](CC(N)=O)C(=O)N[C@H]2C(=O)N[C@H]3C(=O)N[C@H](C(=O)N[C@H](C(=O)O)c4cc(O)cc(O)c4-c4cc3ccc4O)[C@H](O)c3ccc(c(Cl)c3)Oc3cc2cc(c3O[C@@H]2O[C@H](CO)[C@@H](O)[C@H](O)[C@H]2O[C@H]2C[C@](C)(N)[C@H](O)[C@H](C)O2)Oc2ccc(cc2Cl)[C@H]1O [Vancomycin, vancomycin, reference compound] |  |  |  | MIC [2]: < 1.4 µM; MIC [3]: < 1.4 µM |
| CC[C@H](C)[C@H](NC(=O)[C@H](CCCNC(=N)N)NC(=O)[C@H](CCCCN)NC(=O)[C@@H](CC(C)C)NC(=O)[C@H](Cc1ccccc1)NC(=O)[C@H](CCCCN)NC(=O)[C@H](CO)NC(=O)[C@H](Cc1ccccc1)NC(=O)[C@H](Cc1c[nH]c2ccccc12)NC(=O)[C@@H]1CCCN1C(=O)[C@@H](NC(=O)[C@@H](N)Cc1ccccc1)C(C)C)C(=O)N[C@@H](CC(C)C)C(N)=O [Peptide 7] (H-FVPWFSKF[dL]KRIL-NH2; N-terminus assumed) | 12.5 µM | 2 | 25 µM |  |
| CC[C@H](C)[C@H](NC(=O)[C@H](CCCNC(=N)N)NC(=O)[C@H]1C[C@H](O)CN1C(=O)[C@@H](CC(C)C)NC(=O)[C@H](Cc1ccccc1)NC(=O)[C@H](CCCCN)NC(=O)[C@H](CO)NC(=O)[C@H](Cc1ccccc1)NC(=O)[C@H](Cc1c[nH]c2ccccc12)NC(=O)[C@@H]1CCCN1C(=O)[C@@H](NC(=O)[C@@H](N)Cc1ccccc1)C(C)C)C(=O)N[C@@H](CC(C)C)C(N)=O [Peptide 5] (H-FVPWFSKF[dL][dHyp]RIL-NH2) |  | 4 | 100 µM |  |
| CC[C@H](C)[C@H](NC(=O)[C@H](CCCNC(=N)N)NC(=O)[C@H](Cc1c[nH]c2ccccc12)NC(=O)[C@@H](CC(C)C)NC(=O)[C@H](Cc1ccccc1)NC(=O)[C@H](CCCCN)NC(=O)[C@H](CO)NC(=O)[C@H](Cc1ccccc1)NC(=O)[C@H](Cc1c[nH]c2ccccc12)NC(=O)[C@@H]1CCCN1C(=O)[C@@H](NC(=O)[C@@H](N)Cc1ccccc1)C(C)C)C(=O)N[C@@H](CC(C)C)C(N)=O [Peptide 9] (H-FVPWFSKF[dL]WRIL-NH2) | 25 µM | 4 | 100 µM |  |
| CC[C@H](C)[C@H](NC(=O)[C@H](CCCNC(=N)N)NC(=O)[C@H]1CCCN1C(=O)[C@@H](CC(C)C)NC(=O)[C@H](Cc1ccccc1)NC(=O)[C@H](CCCCN)NC(=O)[C@H](CO)NC(=O)[C@H](Cc1ccccc1)NC(=O)[C@H](Cc1c[nH]c2ccccc12)NC(=O)[C@@H]1CCCN1C(=O)[C@@H](NC(=O)[C@@H](N)Cc1ccccc1)C(C)C)C(=O)N[C@@H](CC(C)C)C(N)=O [Peptide 3] (H-FVPWFSKF[dL][dP]RIL-NH2) | 25 µM | 4 | 100 µM |  |
| CC[C@H](C)[C@H](NC(=O)[C@H](CCCNC(=N)N)NC(=O)[C@@H](Cc1c[nH]c2ccccc12)NC(=O)[C@@H](CC(C)C)NC(=O)[C@H](Cc1ccccc1)NC(=O)[C@H](CCCCN)NC(=O)[C@H](CO)NC(=O)[C@H](Cc1ccccc1)NC(=O)[C@H](Cc1c[nH]c2ccccc12)NC(=O)[C@@H]1CCCN1C(=O)[C@@H](NC(=O)[C@@H](N)Cc1ccccc1)C(C)C)C(=O)N[C@@H](CC(C)C)C(N)=O [Peptide 10] (H-FVPWFSKF[dL][dW]RIL-NH2) | 12.5 µM | 2 | 25 µM |  |
| CC[C@H](C)[C@H](NC(=O)[C@H](CCCNC(=N)N)NC(=O)C1(NC(=O)[C@@H](CC(C)C)NC(=O)[C@H](Cc2ccccc2)NC(=O)[C@H](CCCCN)NC(=O)[C@H](CO)NC(=O)[C@H](Cc2ccccc2)NC(=O)[C@H](Cc2c[nH]c3ccccc23)NC(=O)[C@@H]2CCCN2C(=O)[C@@H](NC(=O)[C@@H](N)Cc2ccccc2)C(C)C)Cc2ccccc2C1)C(=O)N[C@@H](CC(C)C)C(N)=O [Peptide 11] (H-FVPWFSKF[dL][Aic]RIL-NH2) | 25 µM | 4 | 100 µM |  |
